Patent publication US20170190671A1, “BIS(ARYL)CATECHOL DERIVATIVES AS HERBICIDES” (E I DU PONT DE NEMOURS AND COMPANY, priority 2014, published 2017)

Columns and labels:
Assay in all cases: Test C preemergence
Format in all cases: in vivo
Conditions in all cases: scale 0 to 100
[1] = tested on: barnyardgrass (Echinochloa crus-galli)
Summary of the method: (§1)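 Visual ratings (0 none to 100 complete control) were made 13 to 15 days after treatment, relative to controls. Test chemicals, formulated in a non-phytotoxic solvent mixture with surfactant, were applied in the greenhouse preemergence to seeded loam-sand soil or postemergence to plants 2 to 18 cm tall.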

[2] = tested on: velvetleaf (Abutilon theophrasti)
Summary of the method: as §1

[3] = tested on: lambsquarters (Chenopodium album)
Summary of the method: as §1

[4] = tested on: Italian ryegrass (Lolium multiflorum)
Summary of the method: as §1

soybean (Glycine max) = tested on: soybean (Glycine max)
Summary of the method: as §1

[5] = tested on: large (Lg) crabgrass (Digitaria sanguinalis)
Summary of the method: as §1

[6] = tested on: giant foxtail (Setaria faberii)
Summary of the method: as §1

[7] = tested on: waterhemp (common waterhemp, Amaranthus rudis)
Summary of the method: as §1

[8] = tested on: yellow nutsedge (Cyperus esculentus)
Summary of the method: as §1

[9] = tested on: oilseed rape (Brassica napus)
Summary of the method: as §1

[10] = tested on: winter wheat (Triticum aestivum)
Summary of the method: as §1

corn (Zea mays) = tested on: corn (Zea mays)
Summary of the method: as §1

[11] = tested on: blackgrass (Alopecurus myosuroides)
Summary of the method: as §1

[12] = tested on: ragweed (common ragweed, Ambrosia elatior)
Summary of the method: as §1

[13] = tested on: galium (catchweed bedstraw, Galium aparine)
Summary of the method: as §1

Compound: FC(F)(F)c1cnc(Oc2c(Br)cccc2Oc2ncc(Cl)cn2)nc1 [Compound 24]
- Plant response rating, Barnyardgrass ([1]; 31 g ai/ha, Preemergence): 75
- Plant response rating, Barnyardgrass ([1]; 62 g ai/ha, Preemergence): 100
- Plant response rating, Barnyardgrass ([1]; 125 g ai/ha, Preemergence): 100
- Plant response rating, Barnyardgrass ([1]; 250 g ai/ha, preemergence): 100
- Plant response rating, Velvetleaf ([2]; 31 g ai/ha, Preemergence): 40
- Plant response rating, Velvetleaf ([2]; 62 g ai/ha, Preemergence): 85
- Plant response rating, Velvetleaf ([2]; 125 g ai/ha, Preemergence): 90
- Plant response rating, Velvetleaf ([2]; 250 g ai/ha, preemergence): 90
- Plant response rating, Lambsquarters ([3]; 31 g ai/ha, Preemergence): 75
- Plant response rating, Lambsquarters ([3]; 62 g ai/ha, Preemergence): 90
- Plant response rating, Lambsquarters ([3]; 125 g ai/ha, Preemergence): 98
- Plant response rating, Lambsquarters ([3]; 250 g ai/ha, preemergence): 98
- Plant response rating, Ryegrass, Italian ([4]; 31 g ai/ha, Preemergence): 55
- Plant response rating, Ryegrass, Italian ([4]; 62 g ai/ha, Preemergence): 90
- Plant response rating, Ryegrass, Italian ([4]; 125 g ai/ha, Preemergence): 95
- Plant response rating, Ryegrass, Italian ([4]; 250 g ai/ha, preemergence): 95
- Plant response rating, Soybean (soybean (Glycine max); 62 g ai/ha, Preemergence): 40
- Plant response rating, Soybean (soybean (Glycine max); 125 g ai/ha, Preemergence): 50
- Plant response rating, Soybean (soybean (Glycine max); 250 g ai/ha, preemergence): 85
- Plant response rating, Crabgrass, Large ([5]; 31 g ai/ha, Preemergence): 100
- Plant response rating, Crabgrass, Large ([5]; 62 g ai/ha, Preemergence): 100
- Plant response rating, Crabgrass, Large ([5]; 125 g ai/ha, Preemergence): 100
- Plant response rating, Crabgrass, Large ([5]; 250 g ai/ha, preemergence): 100
- Plant response rating, Foxtail, Giant ([6]; 31 g ai/ha, Preemergence): 98
- Plant response rating, Foxtail, Giant ([6]; 62 g ai/ha, Preemergence): 98
- Plant response rating, Foxtail, Giant ([6]; 125 g ai/ha, Preemergence): 100
- Plant response rating, Foxtail, Giant ([6]; 250 g ai/ha, preemergence): 100
- Plant response rating, Waterhemp ([7]; 31 g ai/ha, Preemergence): 100
- Plant response rating, Waterhemp ([7]; 62 g ai/ha, Preemergence): 100
- Plant response rating, Waterhemp ([7]; 125 g ai/ha, Preemergence): 100
- Plant response rating, Waterhemp ([7]; 250 g ai/ha, preemergence): 100
- Plant response rating, Nutsedge, Yellow ([8]; 31 g ai/ha, Preemergence): 10
- Plant response rating, Nutsedge, Yellow ([8]; 62 g ai/ha, Preemergence): 10
- Plant response rating, Nutsedge, Yellow ([8]; 125 g ai/ha, Preemergence): 30
- Plant response rating, Nutsedge, Yellow ([8]; 250 g ai/ha, preemergence): 60
- Plant response rating, Oilseed Rape ([9]; 31 g ai/ha, Preemergence): 80
- Plant response rating, Oilseed Rape ([9]; 62 g ai/ha, Preemergence): 100
- Plant response rating, Oilseed Rape ([9]; 125 g ai/ha, Preemergence): 100
- Plant response rating, Oilseed Rape ([9]; 250 g ai/ha, preemergence): 100
- Plant response rating, Wheat ([10]; 31 g ai/ha, Preemergence): 15
- Plant response rating, Wheat ([10]; 62 g ai/ha, Preemergence): 30
- Plant response rating, Wheat ([10]; 125 g ai/ha, Preemergence): 60
- Plant response rating, Wheat ([10]; 250 g ai/ha, preemergence): 90
- Plant response rating, Corn (corn (Zea mays); 31 g ai/ha, Preemergence): 5
- Plant response rating, Corn (corn (Zea mays); 62 g ai/ha, Preemergence): 20
- Plant response rating, Corn (corn (Zea mays); 125 g ai/ha, Preemergence): 45
- Plant response rating, Corn (corn (Zea mays); 250 g ai/ha, preemergence): 65
- Plant response rating, Blackgrass ([11]; 31 g ai/ha, Preemergence): 60
- Plant response rating, Blackgrass ([11]; 62 g ai/ha, Preemergence): 95
- Plant response rating, Blackgrass ([11]; 125 g ai/ha, Preemergence): 95
- Plant response rating, Blackgrass ([11]; 250 g ai/ha, preemergence): 95
- Plant response rating, Ragweed ([12]; 31 g ai/ha, Preemergence): 10
- Plant response rating, Ragweed ([12]; 62 g ai/ha, Preemergence): 10
- Plant response rating, Ragweed ([12]; 125 g ai/ha, Preemergence): 30
- Plant response rating, Ragweed ([12]; 250 g ai/ha, preemergence): 80
- Plant response rating, Galium ([13]; 31 g ai/ha, Preemergence): 98
- Plant response rating, Galium ([13]; 62 g ai/ha, Preemergence): 98
- Plant response rating, Galium ([13]; 125 g ai/ha, Preemergence): 100
- Plant response rating, Galium ([13]; 250 g ai/ha, preemergence): 100
